Experiments:
Experiment in all cases: NCI In Vitro Cell Line Screening (SRB)
CCRF-CEM = format: cell-based, human; details: Leukemia, 48 h
RPMI-8226 = format: cell-based, human; details: RPMI-8226, Leukemia, 48 h
SR = format: cell-based; details: Homo sapiens, Leukemia, 48 h
HOP-62 = format: cell-based, human; details: HOP-62, Non-Small Cell Lung Cancer, 48 h
HOP-92 = format: cell-based, human; details: HOP-92, Non-Small Cell Lung Cancer, 48 h
NCI-H23 = format: cell-based; details: NCI-H23, Non-Small Cell Lung Cancer, 48 h
HCC-2998 = format: cell-based; details: HCC-2998, Colon Cancer, 48 h
HCT-15 = format: cell-based, human; details: HCT-15, Colon Cancer, 48 h
HT29 = format: cell-based; details: Homo sapiens, HT-29, HT29, Colon Cancer, 48 h
KM12 = format: cell-based, human; details: KM12, Colon Cancer, 48 h
SF-295 = format: cell-based, human; details: SF-295, CNS Cancer, 48 h
SNB-19 = format: cell-based, human; details: SNB-19, CNS Cancer, 48 h
SNB-75 = format: cell-based, human; details: SNB-75, CNS Cancer, 48 h
U251 = format: cell-based, human; details: U251, CNS Cancer, 48 h
MALME-3M = format: cell-based, human; details: Melanoma, 48 h
SK-MEL-28 = format: cell-based, human; details: SK-MEL-28, Melanoma, 48 h
OVCAR-4 = format: cell-based, human; details: OVCAR-4, Ovarian Cancer, 48 h
OVCAR-5 = format: cell-based, human; details: OVCAR-5, Ovarian Cancer, 48 h
SK-OV-3 = format: cell-based, human; details: SK-OV-3, Ovarian Cancer, 48 h
786-0 = format: cell-based, human; details: 786-0, Renal Cancer, 48 h
TK-10 = format: cell-based, human; details: TK-10, Renal Cancer, 48 h
UO-31 = format: cell-based, human; details: UO-31, Renal Cancer, 48 h
DU-145 = format: cell-based, human; details: DU-145, Prostate Cancer, 48 h
MCF7 = format: cell-based, human; details: MCF7, Breast Cancer, 48 h
NCI/ADR-RES = format: cell-based, human; details: Breast Cancer, 48 h
T-47D = format: cell-based, human; details: Breast Cancer, 48 h
OVCAR-3 = test system: OVCAR-3
MDA-MB-468 = test system: MDA-MB-468
[1] = Homo sapiens, read-out: LC50 (the source's name)
[2] = read-out: LC50 (the source's name)

CC(C)(C)c1ccc(NC(=O)[C@H](CCCCN)NC(=O)OCC2c3ccccc3-c3ccccc32)cc1 [Compound 105, (S)-[5-AMINO-1-(4-TERT-BUTYL-PHENYLCARBAMOYL)-PENTYL]-CARBAMIC ACID 9H-FLUOREN-9-YLMETHYL ESTER]
GI50 (CCRF-CEM; Homo sapiens): 1.69 µM | CC50 (CCRF-CEM; [1]): 6.47 µM | TGI (CCRF-CEM): 3.31 µM | GI50 (RPMI-8226; Homo sapiens): 1.71 µM | TGI (RPMI-8226): 3.78 µM | GI50 (SR): 0.403 µM | CC50 (SR; [2]): > 100 µM | TGI (HOP-62): 3.87 µM | GI50 (HOP-62; Homo sapiens): 2.18 µM | CC50 (HOP-62; [1]): 6.85 µM | TGI (HOP-92): 3.08 µM | GI50 (HOP-92; Homo sapiens): 1.34 µM | CC50 (HOP-92; [1]): 7.1 µM | LC50 (concentration giving 50% net cell kill) (NCI-H23; Homo sapiens): 5.47 µM | TGI (NCI-H23): 1.95 µM | TGI (HCC-2998): 2.88 µM | GI50 (HCC-2998; Homo sapiens): 1.39 µM | LC50 (lethal concentration, 50% cell kill) (HCC-2998; Homo sapiens): 5.96 µM | TGI (HCT-15): 24.4 µM | GI50 (HCT-15; Homo sapiens): 11.1 µM | CC50 (HCT-15; [1]): 53.9 µM | GI50 (HT29): 0.733 µM | CC50 (HT29; [2]): > 100 µM | GI50 (KM12; Homo sapiens): 14.8 µM | CC50 (KM12; [1]): 55.7 µM | TGI (KM12): 28.7 µM | GI50 (SF-295; Homo sapiens): 3.74 µM | CC50 (SF-295; [1]): 65.3 µM | TGI (SF-295): 19.0 µM | GI50 (SNB-19; Homo sapiens): 1.6 µM | CC50 (SNB-19; [1]): 5.68 µM | TGI (SNB-19): 3.01 µM | GI50 (SNB-75; Homo sapiens): 1.29 µM | CC50 (SNB-75; [1]): 5.97 µM | TGI (SNB-75): 2.78 µM | GI50 (U251; Homo sapiens, U-251): 4.74 µM | CC50 (U251; Homo sapiens, U-251, read-out: LC50 (the source's name)): 48.3 µM | TGI (U251): 17.3 µM | GI50 (MALME-3M; Homo sapiens): 15.6 µM | CC50 (MALME-3M; [1]): 89.5 µM | TGI (MALME-3M): 37.4 µM | GI50 (SK-MEL-28; Homo sapiens): 12.3 µM | CC50 (SK-MEL-28; [1]): 50.2 µM | TGI (SK-MEL-28): 24.8 µM | GI50 (OVCAR-4; Homo sapiens): 1.77 µM | CC50 (OVCAR-4; [1]): > 100 µM | TGI (OVCAR-4): 4.25 µM | GI50 (OVCAR-5; Homo sapiens): 1.85 µM | CC50 (OVCAR-5; [1]): 6.5 µM | TGI (OVCAR-5): 3.46 µM | GI50 (SK-OV-3; Homo sapiens): 1.85 µM | CC50 (SK-OV-3; [1]): 5.99 µM | TGI (SK-OV-3): 3.33 µM | TGI (786-0): 2.66 µM | GI50 (786-0; Homo sapiens): 1.33 µM | CC50 (786-0; [1]): 5.3 µM | GI50 (TK-10; Homo sapiens): 14.1 µM | CC50 (TK-10; [1]): 82.9 µM | TGI (TK-10): 34.1 µM | GI50 (UO-31; Homo sapiens): 1.58 µM | CC50 (UO-31; [1]): 6.76 µM | TGI (UO-31): 3.27 µM | TGI (DU-145): 31.2 µM | GI50 (DU-145; Homo sapiens): 15.8 µM | CC50 (DU-145; [1]): 61.6 µM | GI50 (MCF7; Homo sapiens): 0.546 µM | CC50 (MCF7; [1]): 4.75 µM | TGI (MCF7): 1.91 µM | TGI (NCI/ADR-RES): 1.1 µM | GI50 (NCI/ADR-RES; Homo sapiens): < 0.01 µM | CC50 (NCI/ADR-RES; [1]): 30.5 µM | TGI (T-47D): 3.08 µM | GI50 (T-47D; Homo sapiens, T47D): 1.45 µM | GI50 (OVCAR-3; Homo sapiens, OVCAR-3, 48 h): 16.1 µM | CC50 (OVCAR-3; Homo sapiens, OVCAR-3, 48 h, read-out: LC50): 56.3 µM | TGI (OVCAR-3; OVCAR-3, Ovarian Cancer, 48 h): 30.1 µM | GI50 (MDA-MB-468; Homo sapiens, MDA-MB-468, 48 h): 1.46 µM | TGI (MDA-MB-468; MDA-MB-468, Breast Cancer, 48 h): 3.27 µM

From patent US20080171783A1, “COMPOSITIONS AND METHODS FOR TREATING HYPERPROLIFERATIVE DISEASE” (Migenix Inc., priority 2006, published 2008)
